Values quoted from earlier work in publication PMC5028780, “Receptor and transporter binding and activity profiles of albiflorin extracted from Radix paeoniae Alba” (Scientific Reports, 2016).

Tests used:
5-HT2C sites = tested on: 5-HT2C sites; design: method as in PMID 11454919, PMID 10621762; conditions: antagonist properties; cited from earlier work
h5-HT2C receptors = conditions: reference not given; cited from earlier work

In the case of `CN(C)CCCC1(c2ccc(F)cc2)OCc2cc(C#N)ccc21` (stereo not drawn) [citalopram], the “affinity at 5-HT2C sites” value (5-HT2C sites) is given as “modest affinities”.
For `CN(C)CCCN1c2ccccc2CCc2ccc(Cl)cc21` [clomipramine], the “affinity at 5-HT2C sites” value (5-HT2C sites) is listed as “modest affinities”.
For `CCOc1ccccc1OC(c1ccccc1)C1CNCCO1` (stereo not drawn) [Reboxetine], the “affinity for h5-HT2C receptors” value (h5-HT2C receptors) is listed as “mild affinity”.
